“Also recorded” adds a separate entry of the source.
Key:
mammary gland = assay: Acute oral exposure of ovariectomized mice: nuclear γH2AX in mammary gland; assay type: in vivo, mouse; conditions: 4 days, E2 250, BP3 3,000, PP 10,000 μg/kg/day
Excerpt: Animal Treatment: Forty mature female mice (8 weeks old) BALB/c mice were purchased from Jackson Laboratory and housed in temperature-controlled facilities with a 12-hour alternating day/night light cycle and fed LabChow 5058 ad libitum. All procedures were in accordance with the national guidelines for the care and use of animals and approved by the University of Massachusetts Amherst's Institutional Animal Care and Use Committee.
The mice were ovariectomized before treatment. Briefly, each mouse was anaesthetized with a mix of isofluorance and oxygen. The flanks were shaved, sterilized with betadine and cleaned with alcohol. An incision was made to the skin on the right flank. The underlying muscle layer was nicked to reveal a small hole through which ovary was pulled out by grasping the periovarian fat. A Serrifin clamp was used to hold the ovary. After making sure the blood vessels were constricted to prevent […], the ovary was cut from the uterine horn. The periovarian fat was restored into the peritoneum. The peritoneum was closed with one or two stiches and the skin was closed with 9 mm wound clips. The procedure was repeated on the contralateral side. The mouse was monitored for a week post-procedure and wound clips were removed after 10 days. After 1 week of recovery, the mice began an acute oral treatment via pipette with one of three different compounds prepared in tocopherol-stripped corn oil for 4 days. Each mouse was administered 1 μL of oil per gram of body weight to deliver 250 μg/kg/d E2, 3000 μg/kg/d BP3 or 10000 μg/kg/d PP or vehicle control. […]
Immunostaining of mouse mammary gland: Freshly cut […] paraffin-embedded sections were deparaffinized/rehydrated with 100% xylenes 3 times for 5 min each, 2 times with 100% ethanol for 5 min each, 95% ethanol for 3 min and 70% ethanol for 3 min. […] Analysis of S9.6 intensity per nucleus or foci per nucleus were calculated using Nikon analysis software, where DAPI was used as a mask for the nucleus. […] Positive cells were counted using ImageJ software. 1200 cells were counted to determine percent Ki67 positive.

T47D cells [1] = assay: Cell proliferation assay (alamar blue) in T47D cells; assay type: cell-based, human
Protocol: Cell Proliferation Assay: T47D cells grown in clearing media for 72 h was plated as 100 μl of cells suspension having 5000 or 10000 cells per well on five 96 well plates (one for each day). The 96 well plate had 12 cell-free wells for a blank and 7 wells per treatment on each plate. After 24 h, 100 μl of E2, BP3 or PP containing media was added to appropriate wells on each plate to reach the desired final concentration in each well. All plates were maintained in a 37° C., 5% CO2 incubator until media was exchanged, on one plate per day, for 10% Alamar Blue in plating media. Plates were read at the same time each day at 4 hr and 8 hr after media exchange on a BioTek Synergy 2 plate reader (Winooski, VT) at 570 nm and 600 nm. Percent alamar blue reduction was calculated as per the following equation on the AlamarBlue protocol: […]

T47D cells [2] = assay: 53BP1 immunostaining in T47D cells; assay type: cell-based, human; conditions: E2 10-100 nM, BP3 1-5 μM, PP 1-5 μM
T47D cells [3] = assay: γH2AX immunostaining (DNA damage) in T47D cells; assay type: cell-based, human; conditions: T47D, 24 h; E2 10 or 100 nM, BP3 1 or 5 μM, PP 1 or 5 μM; vs control
Protocol: Immunostaining: Cells were grown in clearing media for 48 h and plated on 20 mm coverslip in 12 well plates with a density of 2×10^5 cells/well. […] Cells were washed with 1×PBS, blocked in 2% BSA/PBS with 0.1% Triton-X 100 for 1 hr at room temperature (RT), incubated overnight with γH2AX antibody (Cell Signaling #9718 S) or ERα antibody (Santa Cruz Biotechnology #sc-8002) at 4° C. and 1 hour with secondary antibody. S9.6: Cells were fixed in ice-cold 100% methanol for 10 min at −20° C., permeabilized in 100% acetone for 1 min at RT, blocked for 30 min in saline sodium citrate pH 7 (SSC, 4×), 3% BSA, 0.1% Triton-X and incubated with S9.6 (Kerafast #ENH001) 2 hr at RT followed by 1 h with secondary antibody. If indicated, slides were treated with RNase H (NEB #M0297L) for 4 hr at 37° C. prior to incubation with primary antibody. Stained cells were mounted with Vectashield mounting medium containing DAPI (Vector Laboratories #H-1200). Slides were imaged at 60× (immersion oil) with Nikon A1 Spectral Confocal microscope. Analysis of γH2AX and S9.6 intensity per nucleus or foci per nucleus was calculated using Nikon analysis software, where DAPI was used as a mask for the nucleus.

| Compound | nuclear γH2AX intensity in the mammary gland vs vehicle control (mammary gland) | Slope of growth curve (T47D cells [1]; 1 μM) | Slope of growth curve (T47D cells [1]; 10 μM) | proliferation (T47D cells [1]; 10 μM) | 53BP1 nuclear intensity (T47D cells [2]) | nuclear γH2AX intensity (T47D cells [3]) | Slope of growth curve (T47D cells [1]; 5 μM) | Slope of growth curve (T47D cells [1]; 50 μM) | proliferation (T47D cells [1]; 5 or 50 μM) | Slope of growth curve (T47D cells [1]; 0.5 nM) |
| --- | --- | --- | --- | --- | --- | --- | --- | --- | --- | --- |
| CCCOC(=O)c1ccc(O)cc1 [PP, propyl parahydroxybenzoate] | increases | 0.01856 | 0.06387 | stimulates significant proliferation | dose-dependent increases in 53BP1 nuclear intensity | significantly higher γH2AX intensity |  |  |  |  |
| COc1ccc(C(=O)c2ccccc2)c(O)c1 [BP3, 2-Hydroxy-4-methoxybenzophenone] | significantly higher; also recorded: increases |  |  |  | higher nuclear 53BP1 intensity over control | increased γH2AX intensity | 0.0202 | 0.01581 | marginal effect |  |
| C[C@]12CC[C@@H]3c4ccc(O)cc4CC[C@H]3[C@@H]1CC[C@@H]2O [E2, 17β-estradiol, reference compound] | significantly higher |  |  |  | dose-dependent increases in 53BP1 nuclear intensity | dose-dependent increase |  |  |  | 0.08495 |
